Assay results: patent publication US20110142866A1, “PEPTIDE ANALOGUES AND CONJUGATES THEREOF” (Eldrug S.A., priority 2007, published 2011)

How the values were obtained:
spleen cells = assay: T cell proliferation assay ([3H]-thymidine uptake); format: in vivo, SJL/J mice; design: key to Proliferation / Proliferation cross reaction: −: negative; +/−: very weak; +: weak; ++: moderate; +++: strong; conditions: for Proliferation: Table 2, peptide analogues conjugated to reduced mannan-KLH; for Proliferation cross reaction: Table 3, complete Freund's adjuvant; for proliferation of MBP83-99 specific T cells to recall analogue (in words): mice immunized with agonist MBP83-99 in CFA
Experimental: Spleen cells from immunized SJL/J mice were isolated 14 days after immunization and assessed by T cell proliferation assay. 1×10^5 spleen cells in 100 μl culture media were seeded into 96 U-bottom plates and incubated for 1-6 days at 37° C. in the presence of recall peptide (10 μg/ml), ConA (positive control) or no peptide (negative control). Proliferation was assessed by adding 1 μCi of [^3H]-thymidine per well to one plate per time point (days 1-6). Cells were incubated for a further 6 h before harvesting onto glass fiber filters. [^3H] uptake was measured using a β-scintillation counter (Top Count Gamma Counter, Packard, USA).
Proliferation assays were used to detect the level of antigen specific T cells by measuring the [3H]thymidine uptake of T cells proliferating in the presence of peptides on days 1-6. Spleen cells from mice immunized with linear agonist MBP83-99 peptide were isolated 28 days after immunization and assessed by T cell proliferation assay. T cells proliferated to MBP83-99 peptide, reaching a peak by day 5 of up to 25 000 cpm (FIG. 9D). In addition, the MBP83-99 specific T cells cross-reacted with linear [A^91]MBP83-99 and mutant cyclo(83-99)[A^91]MBP83-99 peptide analogues (FIG. 9D). The cyclo(83-99)[A^91]MBP83-99 peptide proliferated similarly to linear [A^91]MBP83-99 peptide, reaching a peak on day 5 (FIG. 9D). ConA (internal control) yielded proliferation of more than 75 000 cpm peaked on day 2 and was excluded from the figures, and no peptide (cells alone) was used as background negative control.

[1] = system: IFN-γ production induced by the native MBP83-99 peptide; assay: In vitro IFN-γ antagonism ELISpot; format: cell-based, SJL/J mice; design: key to Antagonism: −: negative; +/−: very weak; +: weak; ++: moderate; +++: strong; conditions: for Antagonism: Table 3, complete Freund's adjuvant
Experimental: Mice were immunized with native MBP83-99 peptide emulsified in CFA, and spleen cells were isolated 25 days later. The ability of cyclic mutant MBP83-99 peptide analogues to antagonize IFN-γ production was assessed by ELISpot analysis. The native MBP83-99 peptide was added together with cyclic mutated MBP83-99 analogues, and % IFN-γ inhibition is shown.
ELISpot assays are an ex vivo 18 h assay that measures IFN-γ secretion by T cells. […] The sensitivity of the assay is higher than limiting dilution analysis, FACscan analysis, or ELISA methods and can reliably detect precursor frequencies of antigen specific effectors of 1 in every 0.5 million cells. It is therefore an appropriate method to detect antigen specific cells. Here, we measured IFN-γ production generated by the native MBP83-99 peptide and assessed the % inhibition (antagonize) of IFN-γ produced in the presence of mutant peptide analogues.
Cyclic head-to-tail MBP83-99 single and double mutant analogues were tested for their ability to inhibit IFN-γ responses induced by the native agonist MBP83-99 peptide. Mice were immunized with the native agonist MBP83-99 peptide emulsified in complete Freund's adjuvant (CFA). Spleen cells were isolated 25 days later, and the ability of cyclic peptides to inhibit (antagonize) IFN-γ production was assessed in in vitro antagonism ELISpot assays (FIG. 8). The results are shown as % IFN-γ inhibition of each cyclic mutant peptide analogue, in comparison to the native MBP83-99 peptide alone. All cyclic peptide analogues inhibited IFN-γ production between 30% and 90%. […] However, the single mutant analogue cyclo(83-99)[A^91]MBP83-99 was the most efficient in inhibiting IFN-γ production induced by the native MBP83-99 peptide, up to 92%. On the basis of the ability of cyclo(83-99)[A^91]MBP83-99 peptide to inhibit (antagonize) IFN-γ production by T cells, we chose to examine its in vivo efficacy in SJL/J mice after emulsification in CFA or conjugation to reduced mannan.

Row | Substance | Proliferation (spleen cells) | Proliferation cross reaction (spleen cells) | proliferation of MBP83-99 specific T cells to recall analogue (in words) (spleen cells) | Antagonism [1] | T cell proliferation, peak (spleen cells; mice immunized with linear MBP83-99 (CFA), spleen cells 28 days, recall peptide, peak by day 5) | T cell proliferation to recall peptide (in words) (spleen cells; immunization with reduced mannan-KLH-peptide) | % IFN-γ inhibition ([1]; spleen cells of mice immunized with native MBP83-99 in CFA, 25 days, cyclic analogue added together with native MBP83-99)
1 | E N P V V H F F Y N I V T P R T P (ENPVVHFFYNIVTPRTP) [[Y^91]MBP83-99] | +/− | +/− | weakly proliferated | ++ |  |  | 
2 | E N P V V H F F K N I V T P R T P (ENPVVHFFKNIVTPRTP) [MBP83-99, reference compound] |  |  |  |  | up to 25 000 cpm |  | 
3 | E N P V V H F F E N I V T P R T P (ENPVVHFFENIVTPRTP) [[E^91]MBP83-99] |  | ++ |  | ++ |  |  | 
4 | E N P V V H F F F N I V T P R T P (ENPVVHFFFNIVTPRTP) [[F^91]MBP83-99] | +++ | ++ |  | ++ |  | strong | 
5 | E N P V V H F F A N I V T P R T P (ENPVVHFFANIVTPRTP) [[A^91]MBP83-99] |  | ++ | cross-reacted | ++ |  |  | 
6 | E N P V V H F F R N I V T A R T P (ENPVVHFFRNIVTARTP) [[R^91, A^96]MBP83-99] |  | +/− | weakly proliferated | ++ |  |  | 
7 | cyclo(83-99)E N P V V H F F A N I V T P R T P (ENPVVHFFANIVTPRTP; cyclised or stapled) [cyclo(83-99)[A^91]MBP83-99] |  | ++ | cross-reacted | ++ |  |  | up to 92%
